Some test systems named below: DLD-1 colon; DMS 114 small cell lung; LXFL 529 NSCLC; M19-MEL melanoma; BT-549 breast; HS 578T breast; MCF7 breast; T-47D breast.
Test in all cases: NCI-60 cell line screen, 48 h

Where “and” joins values, the source holds several entries; their conditions need not be identical. Identical values can stand only once.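 Dose response: 5 concentrations. Exposure: 48 h. Format: 96-well plates. Endpoint: linear interpolation; highest concentration if not reached. At the GI50, growth is halved. TGI denotes the concentration required for complete inhibition of growth.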 Calls of active or inactive are those of the source. Rule as the data show it: active = GI50 below about 0.43 µM; inactive = the rest.

With `COc1cc(C(=O)C/C(CCC(=O)Nc2ccc(Cl)cc2C)=N/NC(=O)C(N)=O)ccc1O`, the TGI in the assay with DLD-1 colon, in the assay with DMS 114 small cell lung, in the assay on LXFL 529 NSCLC and in the assay with M19-MEL melanoma was above 100 µM each time.

With `COC1OC(C)C(O)CC1OS(=O)(=O)c1ccc(C)cc1` (stereo not drawn), the TGI with DMS 114 small cell lung, in the assay on LXFL 529 NSCLC and in the assay with M19-MEL melanoma was above 100 µM each time.

In the case of `C1CCN(C2OC3C(COC3N3CCCCC3)OC2OC2CCO[C@@H]2N2CCCCC2)CC1` (stereo partly drawn), the TGI is above 100 µM in the assay with DLD-1 colon, 54.7 µM with DMS 114 small cell lung and 68.5 µM with LXFL 529 NSCLC.

As for `O=C(O)CC12C3C4C5C3C1C5C42` (stereo not drawn), the TGI in the assay on DLD-1 colon, in the assay on DMS 114 small cell lung, with LXFL 529 NSCLC and with M19-MEL melanoma was above 100 µM in each case.

Turning to `COC(=O)C12CC3CC(C1)CC(C(=O)OC)(C3)C2`, the TGI with DLD-1 colon, in the assay on DMS 114 small cell lung, with LXFL 529 NSCLC and in the assay with M19-MEL melanoma was above 100 µM in each case.

Take `C=C1C(=O)[C@@]23CC1C(O)[C@@H](OC(C)=O)[C@@H]2C1(C)C(OC(C)=O)C[C@@H](OC(C)=O)C(C)(C)[C@@H]1C[C@H]3OC(C)=O` (stereo partly drawn): the GI50 in the assay with BT-549 breast is 1.87 µg/mL; with DMS 114 small cell lung it was 2.08 µg/mL; in the assay with HS 578T breast it was 2 µg/mL; in the assay on M19-MEL melanoma, 2.23 µg/mL; with MCF7 breast, 6.33 µg/mL; in the assay with T-47D breast it was 2.14 µg/mL. Moreover, the TGI in the assay on BT-549 breast is 3.04 µM and 3.31 µg/mL; in the assay on DMS 114 small cell lung, 4.6 µg/mL; with HS 578T breast it was > 10 µM and 5.83 µg/mL; with M19-MEL melanoma, 4.85 µg/mL; with MCF7 breast it was 6.7 µM and 19.1 µg/mL; in the assay with T-47D breast it was 4.55 µM and 4.57 µg/mL. For the same molecule, in the assay with LXFL 529 NSCLC, the result was inactive.

Consider `CC(=O)Nc1c(C)ccc2c1C(=O)c1ccccc1C2=O`, for which the TGI with DLD-1 colon, with DMS 114 small cell lung, in the assay on LXFL 529 NSCLC and in the assay with M19-MEL melanoma was above 100 µM each time.

Take `CC[O-].CC[O-].O=C1C(c2ccccc2)=C([O-])c2ccccc21.O=C1C(c2ccccc2)=C([O-])c2ccccc21.[Ti+4]`: the GI50 with DLD-1 colon, in the assay with DMS 114 small cell lung, in the assay with LXFL 529 NSCLC and in the assay with M19-MEL melanoma was above 100 µM in each case. Besides, the TGI with DLD-1 colon, with DMS 114 small cell lung, with LXFL 529 NSCLC and in the assay with M19-MEL melanoma was above 100 µM each time.

For `CCOC(=O)NC(=O)c1cn(CCCOC(=O)CCCCCCCCCCC(=O)OCCCn2cc(C(=O)NC(=O)OCC)c(=O)n(C)c2=O)c(=O)n(C)c1=O`, the TGI in the assay on DLD-1 colon, in the assay with DMS 114 small cell lung, in the assay with LXFL 529 NSCLC and in the assay with M19-MEL melanoma was above 100 µM in each case.

As for `C=CCN1C=CC(=O)[C@H](O[Si](C)(C)C(C)(C)C)[C@@H]1/C=C/c1ccccc1`, the GI50 in the assay on BT-549 breast was 16 µM; with HS 578T breast, 14.1 µM; with MCF7 breast, 8.77 µM; in the assay with T-47D breast, 4.04 µM. Besides, the TGI with BT-549 breast turned out to be 35 µM; in the assay on HS 578T breast, 34.3 µM; in the assay with MCF7 breast it was 21.9 µM; in the assay on T-47D breast, 17 µM.

For `COc1cc2c(cc1OCCCCCCN1CCN(c3ncnc4ccccc34)CC1)N=CC1CCCN1C2=O` (stereo not drawn), the GI50 in the assay with BT-549 breast is 0.0422 µM; in the assay on HS 578T breast, 0.0887 µM; with MCF7 breast, below 0.0222 µM; in the assay on T-47D breast it was 0.0237 µM. The TGI with BT-549 breast is 0.227 µM; with HS 578T breast it was 0.666 µM; in the assay with MCF7 breast, 0.597 µM; with T-47D breast, 0.0792 µM.

As for `CC1=C2C[C@H]3[C@@H](CC=C4C[C@@H](O)CC[C@@]43C)[C@@H]2CC[C@]12O[C@@H]1C[C@H](C)CN[C@H]1[C@H]2C`, the GI50 in the assay on BT-549 breast was 31 µM and 52.1 µM; in the assay with HS 578T breast it was > 50 µM and 35 µM; in the assay on MCF7 breast, 29 µM and 23.7 µM; in the assay on T-47D breast, 13.3 µM and 16.7 µM. In addition, the TGI with BT-549 breast is 50 µM and > 100 µM; in the assay with HS 578T breast it was above 100 µM; in the assay on MCF7 breast, 50 µM and 55.9 µM; in the assay with T-47D breast it was 32.8 µM and 34.9 µM.

Take `CN(C)CC/C(=N\Nc1ccccc1)c1ccccc1`: the TGI in the assay with DLD-1 colon is above 100 µM; in the assay on DMS 114 small cell lung, above 100 µM; in the assay on M19-MEL melanoma, 77.9 µM.

Consider `COc1cc2c(Oc3ccc4[nH]c(C)cc4c3F)ccnc2cc1OCC1(N)CC1`, for which the GI50 with BT-549 breast was 1.3 µM; in the assay with HS 578T breast, 0.759 µM; with MCF7 breast, 0.484 µM; in the assay on T-47D breast, 3.64 µM. Further, the TGI came to 3.96 µM in the assay on BT-549 breast, 3.29 µM in the assay on HS 578T breast, 24.6 µM in the assay on MCF7 breast and 28.5 µM in the assay on T-47D breast.

With `COc1cccc(-c2nc3sccn3c2-c2ccnc(NCCNS(=O)(=O)c3ccccc3)c2)c1`, the GI50 in the assay with BT-549 breast is 2.29 µM; in the assay on HS 578T breast it was 3.7 µM; in the assay on MCF7 breast, 3.14 µM; in the assay with T-47D breast, 0.776 µM. Further, the TGI with BT-549 breast is 8.67 µM; with HS 578T breast, above 100 µM; in the assay with MCF7 breast, above 100 µM; in the assay on T-47D breast it was 4.96 µM.

`COC(=O)c1c2c(c(C)[n+]([O-])c1C)C(=O)C=C(NCc1ccc(OC)cc1)C2=O`: the GI50 in the assay with BT-549 breast is 4.29 µM; in the assay with HS 578T breast, 5.32 µM; in the assay with MCF7 breast, 0.72 µM; in the assay on T-47D breast it was 0.994 µM. Also, the TGI in the assay with BT-549 breast came to 15.8 µM; with HS 578T breast, 21.6 µM; in the assay with MCF7 breast it was 2.14 µM; with T-47D breast it was 4.18 µM.

On to `Cc1cc(C)nc(NS(=O)(=O)c2ccc(Nc3c4ccc(Cl)cc4nc4c(C(=O)Nc5ccc(S(=O)(=O)N=C(N)N)cc5)cccc34)cc2)n1`, for which the TGI in the assay on DLD-1 colon, in the assay with DMS 114 small cell lung, in the assay with LXFL 529 NSCLC and with M19-MEL melanoma was above 100 µM throughout.

As to `CCN(CC)CCNC(=O)c1nn(C)c(=S)[nH]c1=S`, the TGI in the assay on DLD-1 colon, in the assay with DMS 114 small cell lung, in the assay on LXFL 529 NSCLC and in the assay with M19-MEL melanoma was above 100 µM throughout.

Turning to `CC/C(=C(/CC)c1ccc(O)cc1)c1ccc([O-])cc1.CC/C(=C(/CC)c1ccc(O)cc1)c1ccc([O-])cc1.O=C([CH-]C(=O)c1ccccc1)c1ccccc1.O=C([CH-]C(=O)c1ccccc1)c1ccccc1.[Ti+4]`, in the assay on DLD-1 colon, the GI50 was 10.8 µM and the TGI was determined as 28.9 µM.

These data come from PubChem BioAssay (NCI).
